The results in this text go back to patent publication US12577255B2, “MDM2-based modulators of proteolysis and associated methods of use” (Arvinas Operations, Inc., priority 2015, dated 2026).

The target of assay [1] is enhancer of zeste homolog 2 (EZH2) (Homo sapiens, UniProt Q15910). In words: EZH2 Western blot assay (degradation). The class given is cell-based. Conditions: at 1 μM; 16 h. How it is done:
(§1) The following biological assays were performed to evaluate the protein degradation in various cell types using representative compounds disclosed. The degradation of the following proteins were evaluated: bromodomain-containing protein 4 (BRD4), androgen receptor (AR), c-Myc, c-Jun N-terminal kinases (JNK), and enhancer of zeste homolog 2 (EZH2).
(§2) Cells were purchased from ATCC and cultured in Dulbecco's Modified Eagle's Medium (ATCC), supplemented with 10% FBS (ATCC) and Penicillin/Streptomycin (Life Technologies). […] Cells were harvested, and lysed in RIPA buffer (50 mM Tris pH8, 150 mM NaCl, 1% Tx-100, 0.1% SDS, 0.5% sodium deoxycholate) supplemented with protease and phosphatase inhibitors. Lysates were clarified at 16,000 g for 10 minutes, and protein concentration was determined. Equal amount of protein (20 μg) was subjected to SDS-PAGE analysis and followed by immunoblotting according to standard protocols.

The test system of assay [2] is c-Jun N-terminal kinases (JNK). In words: JNK Western blot assay (degradation). It counts as cell-based. Conditions: at 1 μM; 16 h. How it is done:
as §1, §2
(In western blotting, separated proteins are transferred to a membrane and probed.)

Each structure is given as a SMILES string.

enhancer of zeste homolog 2 (EZH2), sequence (Q15910 whole entry): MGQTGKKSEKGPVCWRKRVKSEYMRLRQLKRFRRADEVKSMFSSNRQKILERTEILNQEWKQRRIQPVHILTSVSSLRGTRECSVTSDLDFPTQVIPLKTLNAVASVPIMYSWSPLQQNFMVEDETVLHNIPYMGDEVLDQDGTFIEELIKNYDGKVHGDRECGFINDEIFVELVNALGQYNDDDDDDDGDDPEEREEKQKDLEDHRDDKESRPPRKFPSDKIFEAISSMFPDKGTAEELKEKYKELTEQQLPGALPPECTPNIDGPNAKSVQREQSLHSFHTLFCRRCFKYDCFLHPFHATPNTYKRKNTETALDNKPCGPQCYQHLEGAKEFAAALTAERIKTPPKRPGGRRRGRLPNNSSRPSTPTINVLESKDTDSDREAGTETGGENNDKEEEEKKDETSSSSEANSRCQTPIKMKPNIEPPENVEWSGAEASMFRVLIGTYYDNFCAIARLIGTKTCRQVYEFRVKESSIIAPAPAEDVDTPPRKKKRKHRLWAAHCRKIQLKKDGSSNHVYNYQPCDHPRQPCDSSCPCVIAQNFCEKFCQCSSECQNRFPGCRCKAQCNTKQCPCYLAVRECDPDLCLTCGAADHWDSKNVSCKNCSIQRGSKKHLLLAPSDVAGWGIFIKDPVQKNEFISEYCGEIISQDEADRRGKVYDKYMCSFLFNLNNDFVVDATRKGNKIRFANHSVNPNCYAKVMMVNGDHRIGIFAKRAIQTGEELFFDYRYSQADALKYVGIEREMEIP
enhancer of zeste homolog 2 (EZH2), sequence (O75530 whole entry partner): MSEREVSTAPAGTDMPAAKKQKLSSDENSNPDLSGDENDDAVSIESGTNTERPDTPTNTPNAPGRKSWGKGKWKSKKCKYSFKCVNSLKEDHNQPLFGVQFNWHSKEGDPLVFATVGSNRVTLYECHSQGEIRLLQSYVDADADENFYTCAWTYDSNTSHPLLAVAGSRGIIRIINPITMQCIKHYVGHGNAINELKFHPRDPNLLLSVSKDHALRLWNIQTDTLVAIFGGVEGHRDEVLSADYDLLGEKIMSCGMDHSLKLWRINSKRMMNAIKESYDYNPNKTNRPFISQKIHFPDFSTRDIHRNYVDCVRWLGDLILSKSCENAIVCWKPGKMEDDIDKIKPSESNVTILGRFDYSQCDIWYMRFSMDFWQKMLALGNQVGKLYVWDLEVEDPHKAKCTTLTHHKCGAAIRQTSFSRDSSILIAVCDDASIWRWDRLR
enhancer of zeste homolog 2 (EZH2), sequence (Q15022 whole entry partner): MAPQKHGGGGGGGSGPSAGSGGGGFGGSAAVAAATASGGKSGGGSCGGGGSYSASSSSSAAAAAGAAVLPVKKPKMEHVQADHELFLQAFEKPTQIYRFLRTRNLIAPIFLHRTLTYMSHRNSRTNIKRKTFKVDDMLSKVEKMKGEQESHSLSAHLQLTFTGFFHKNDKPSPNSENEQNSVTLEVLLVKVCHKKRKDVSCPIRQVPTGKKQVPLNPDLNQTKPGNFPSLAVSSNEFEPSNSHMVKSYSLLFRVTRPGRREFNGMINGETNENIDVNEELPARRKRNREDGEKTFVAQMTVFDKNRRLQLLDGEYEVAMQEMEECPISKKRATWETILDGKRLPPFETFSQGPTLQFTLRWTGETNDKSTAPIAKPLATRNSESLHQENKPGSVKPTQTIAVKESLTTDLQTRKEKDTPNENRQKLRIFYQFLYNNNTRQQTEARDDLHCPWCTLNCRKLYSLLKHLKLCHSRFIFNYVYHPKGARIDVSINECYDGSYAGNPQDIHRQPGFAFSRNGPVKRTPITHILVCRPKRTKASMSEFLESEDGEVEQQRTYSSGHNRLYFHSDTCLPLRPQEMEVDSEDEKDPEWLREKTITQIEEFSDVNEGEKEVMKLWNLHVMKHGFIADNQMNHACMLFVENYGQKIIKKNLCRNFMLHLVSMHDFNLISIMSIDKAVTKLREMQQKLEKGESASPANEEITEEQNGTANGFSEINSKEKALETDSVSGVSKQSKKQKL

As for `CCN(c1cc(-c2ccc(OCCOCCOCCOCCOCCOCCNC(=O)c3ccc(NC(=O)C4NC(CC(C)(C)C)C(C#N)(c5ccc(Cl)cc5F)C4c4cccc(Cl)c4F)c(OC)c3)cc2)cc(C(=O)NCc2c(C)cc(C)[nH]c2=O)c1C)C1CCOCC1` (stereo not drawn) [Compound A2844, 3-(3-chloro-2-fluorophenyl)-4-(4-chloro-2-fluorophenyl)-4-cyano-N-[4-({1-[4-(3-{[(4,6-dimethyl-2-oxo-1,2-dihydropyridin-3-yl)methyl]carbamoyl}-5-[ethyl(oxan-4-yl)amino]-4-methylphenyl)phenyl]-1,4,7,10,13,16-hexaoxaoctadecan-18-yl}carbamoyl)-2-methoxyphenyl]-5-(2,2-dimethylpropyl)pyrrolidine-2-carboxamide], the “Degradation activity EZH2” value in assay [1] is recorded as “A (0 to 25% degradation at 1 μM)”.
Still for that read-out and setting: as for `CCN(c1cc(-c2ccc(OCCOCCOCCOCCNC(=O)c3ccc(NC(=O)C4NC(CC(C)(C)C)C(C#N)(c5ccc(Cl)cc5F)C4c4cccc(Cl)c4F)c(OC)c3)cc2)cc(C(=O)NCc2c(C)cc(C)[nH]c2=O)c1C)C1CCOCC1` (stereo not drawn) [Compound A2790, 3-(3-chloro-2-fluorophenyl)-4-(4-chloro-2-fluorophenyl)-4-cyano-N-[4-({1-[4-(3-{[(4,6-dimethyl-2-oxo-1,2-dihydropyridin-3-yl)methyl]carbamoyl}-5-[ethyl(oxan-4-yl)amino]-4-methylphenyl)phenyl]-1,4,7,10-tetraoxadodecan-12-yl}carbamoyl)-2-methoxyphenyl]-5-(2,2-dimethylpropyl)pyrrolidine-2-carboxamide], the entry is “A (0 to 25% degradation at 1 μM)”.
As for `COc1ccc(C(=O)NCCOCCOCCOCCOCCO[C@H]2CC[C@H](Nc3nccc(-c4cnn(Cc5ccccc5)c4N(C)C)n3)CC2)cc1NC(=O)C1N[C@@H](CC(C)(C)C)[C@](C#N)(c2ccc(Cl)cc2F)[C@H]1c1cccc(Cl)c1F` (stereo partly drawn) [Compound A2792, 3-(3-chloro-2-fluorophenyl)-4-(4-chloro-2-fluorophenyl)-4-cyano-5-(2,2-dimethylpropyl)-N-[2-methoxy-5-({1-[(1,4-trans)-4-({4-[1-benzyl-5-(dimethylamino)-1H-pyrazol-4-yl]pyrimidin-2-yl}amino)cyclohexyl]-1,4,7,10,13-pentaoxapentadecan-15-yl}carbamoyl)phenyl]pyrrolidine-2-carboxamide], the “Degradation activity JNK” value in assay [2] was “A (0 to 25% degradation at 1 μM)”.
